Source: US5686416A, “Increasing blood-brain barrier permeability with permeabilizer peptides” (priority 1993, dated 1997)

What was measured:
C. neoformans = assay: Experimentally-induced cryptococcal meningitis in rabbits, CSF colony counts; type: in vivo, Cryptococcus neoformans; conditions: 1 mg AmB/kg daily i.v., Days 11 and 14
Method: Four day old cultures of C. neoformans containing 100 μg of chloramphenicol per mL were absorbed on cotton swabs, suspended in 15 mM phosphate-buffered saline, and adjusted to approximately 5×10^7 colony forming units (CFU)/mL. New Zealand White rabbits (2-3 kg) were immunosuppressed with 2.5 mg cortisone acetate administered intramuscularly (i.m.) beginning one day prior to inoculation with C. neoformans (Day 0), and once daily thereafter until study termination. On Day 1 rabbits were sedated with ketamine (100-150 mg) and xylazine (15-25 mg) i.m., and intracisternally inoculated with 0.3 mL of C. neoformans suspension. On Day 4 CSF was collected and plated on agar plates containing chloramphenicol to establish a baseline level for C. neoformans counts (CFU/mL), and drug treatment was then initiated. CSF samples were also withdrawn for C. neoformans counts on Days 7, 11 and 14. The duration of drug treatment was 10 days.
Each group size generally consisted of three to five animals. All treatments were administered via an ear vein, and permeabilizer A-7 was always administered immediately prior to AmB. CSF samples were always withdrawn prior to drug therapy on treatment days.

9L Glioma cells = assay: Survival time of rats with brain tumor implants; type: in vivo
Method: Male Fischer 344 rats (200-250 g) were anesthetized with ketamine HCL (100 mg/kg) and acepromazine (10 mg/kg). The animals were placed in a stereotaxic device. The head of each animal was shaved and a midline incision was made to expose the skull. A small hole was drilled over the right sensorimotor cortex. A […] cell suspension (250,000 9L Glioma cells) was injected over 5 minutes into the right caudate putamen of each animal and the scalp sutured. Animals were observed daily for signs of failing health. When signs of very poor health were observed (eye hemorrhage or loss of righting reflex) animals were euthanatized and the brains examined for presence of tumor.
The results are shown in Table III as median survival with range.

dopamine receptors = conditions: rats; 300 μg domperidone with or without 10 μg permeabilizer A-7, one hour before apomorphine 0.75 mg/kg s.c.
Method: Domperidone is a dopamine receptor antagonist used clinically as an anti-emetic by virtue of its action at the area postrema outside the blood-brain barrier.
The activity cages were standard size rat cages with two photocell beams running across the floor of each cage. Any movement of the rat through either of the beams was recorded by a computer. Locomotor activity was measured as the number of beam breaks in a sequence of 10-minute intervals over a two hour period.
The motor activity of the rats was measured in activity cages over 10-minute intervals for up to 2 hours post-apomorphine injection.

blood-brain barrier [1] = assay: Uptake of radiolabelled substances of different molecular weights into the brain (Table I)
Method: The animals were euthanatized 10 minutes after the co-administration and the radioactivity present in brain was measured as described previously for ^14 C sucrose.

opiate receptor = assay: Tail flick assay, antinociceptive effect of loperamide; type: in vivo; conditions: mice; nalorphine 10 mg/kg i.p. 15 minutes before
Method: Female Nalb/C mice weighing approximately 20 g were used. The tail flick assay was performed using a Tail Flick Apparatus model TF6 (Emdie Instruments, Maidens, Va.). The intensity of the heat source was adjusted daily to yield a reaction time between 2.0 and 3.2 seconds in naive untreated mice. The maximum time of exposure to the heat source allowed was 7.5 seconds. The tail withdrawal reaction time of each mouse was measured 4 times at 10 second intervals immediately prior to intravenous injections of the experimental substances via the tail vein. The last three values were averaged and taken as baseline value (Vo). Another set of four measurements was taken at the following intervals after tail vein injection of the opiate receptor agonist loperamide with and without the other agents: immediately, 5 min, 10 min, 15 min, 30 min, and 60 min. The last three values for each of these time points (V) were averaged. […] The results were expressed as percent of maximum antinociceptive response according to the formula: 100×(V-Vo)/(7.5-Vo).

angiotensin II receptors = assay: Drinking behavior of rats with angiotensin II analogue; type: in vivo; conditions: 1 μg β-Asp^1 -angiotensin II, 10 μg permeabilizer A-7, with or without 8 μg saralasin i.v., 1 hour
Method: The volume of water consumed by each rat over a 1 hour interval was measured.
The saralasin was given because it is a known angiotensin II receptor antagonist. Again, the volume of water consumed by each rat over a 1 hour interval was measured.

blood-brain barrier [2] = assay: Dose response of blood-brain barrier permeabilizers, sucrose uptake studies; type: in vivo; conditions: mice; various amounts; FIGS. 3c and 3d
Method: Female Balb/C mice weighing approximately 20 g were used. All solutions were prepared in sterile phosphate-buffered saline. […] In other experiments, mice were euthanitized 10 minutes after the ^14 C sucrose administration. Blood was collected in heparinized tubes and centrifuged to separate plasma from the resulting pellet. Radioactivity in a 100 μl aliquot of plasma was measured by liquid scintillation counting after the addition of 15 ml of Aquasol-2 (Dupont). The brain was removed and homogenized in 2.5 ml of water and 2.5 ml of 1% sodium dodecyl sulfate (SDS). One ml of the homogenate was aliquoted and added to 15 ml of Aquasol-2 for counting. Brain uptake of sucrose was calculated and graphically expressed as percent of injected dose×100. […] Each data point represents the mean ± s.d. from 8 mice.

bradykinin receptor = target: T1, bradykinin receptor (Rattus norvegicus, UniProt P25023); assay: Displacement of [^3 H]-bradykinin binding on rat brain endothelial cells; conditions: no competing peptide; corrected for nonspecific binding
T1 construct: endogenous in cells; host or cells: cultured rat brain microvessel endothelial cells, passages 9 to 12, intact monolayers
T1 sequence (P25023 1-396): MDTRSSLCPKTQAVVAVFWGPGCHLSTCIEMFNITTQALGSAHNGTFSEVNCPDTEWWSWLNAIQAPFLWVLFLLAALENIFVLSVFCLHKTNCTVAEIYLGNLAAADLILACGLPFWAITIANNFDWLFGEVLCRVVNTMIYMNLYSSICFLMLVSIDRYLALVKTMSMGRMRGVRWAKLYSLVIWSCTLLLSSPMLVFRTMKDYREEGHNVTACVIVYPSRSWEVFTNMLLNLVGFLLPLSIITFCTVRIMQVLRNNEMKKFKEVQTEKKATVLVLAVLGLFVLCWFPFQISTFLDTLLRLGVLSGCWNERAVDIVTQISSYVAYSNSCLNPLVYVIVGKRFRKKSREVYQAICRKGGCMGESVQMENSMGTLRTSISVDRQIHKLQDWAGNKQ
Method: Endothelial cells employed in this study were isolated from individual rat brain microvessels and cultured. For binding studies, cells at passages 9 to 12 were seeded (at a 1:5 split) onto gelatinized 24-well tissue culture dishes. Binding experiments were conducted on day 7 after seeding. […] All subsequent manipulations were performed in the cold room, unless otherwise indicated.
To initiate binding incubations, the buffer was removed from cell layers and replaced with 0.4 mL fresh binding buffer at 4° C. containing [^3 H-pro^2,3 ]-bradykinin ([^3 H]-bradykinin) and competing non-radioactive peptides at concentrations indicated for the individual experiments. Triplicate wells were used for each experimental condition. For later determination of cell number, where indicated, certain wells were covered with binding buffer without radioligand and incubated in parallel with the other samples. […]
The dissociated cells were collected, diluted into 10 mL Isoton diluent, and cell numbers were determined with a Coulter counter. […] The two aliquots were pooled into a single scintillation vial, 10 mL of Hydrofluor scintillation fluid was added and samples were counted for tritium in a scintillation counter. […] Aliquots of each [^3 H]-bradykinin dilution that was added to the cells were counted along with the other samples. […]

[3] = Table IV, additional experiment

C[C@@H]1[C@H](O)[C@@H](C)/C=C/C=C/C=C/C=C/C=C/C=C/C=C/[C@H](O[C@@H]2O[C@H](C)[C@@H](O)[C@H](N)[C@@H]2O)C[C@@H]2O[C@](O)(C[C@@H](O)C[C@@H](O)[C@H](O)CC[C@@H](O)C[C@@H](O)CC(=O)O[C@H]1C)C[C@H](O)[C@H]2C(=O)O [AmB, Amphotericin B]
CSF C. neoformans counts compared to controls (C. neoformans): significantly lowered

N.N.[Cl][Pt][Cl] [Cisplatin]
Median Survival (9L Glioma cells; Table III, Fischer 344 rats, 9L glioma, i.v. treatment days 5 through 14, cisplatin 200 μg/rat, A-7 50 μg, bradykinin 1 mg): 13 days
Survival, Range (9L Glioma cells; Table III, Fischer 344 rats, 9L glioma, treatment days 5 through 14): 9 to 18 days
Median Survival (9L Glioma cells; [3]): 15.5 days
Survival, Range (9L Glioma cells; [3]): 12 to 18 days

O=c1[nH]c2ccccc2n1CCCN1CCC(n2c(=O)[nH]c3cc(Cl)ccc32)CC1 [Domperidone]
effect on motor activity induced by apomorphine (dopamine receptors): little, if any, effect

OC[C@H]1O[C@@](CO)(O[C@H]2O[C@H](CO)[C@@H](O)[C@H](O)[C@H]2O)[C@@H](O)[C@@H]1O [^14 C-Sucrose, Sucrose]
% Injected Dose, +10 μg A-7 (blood-brain barrier [1]; mouse, in vivo, iv): 0.165 ± 0.049 % Injected Dose
% Injected Dose, Control (blood-brain barrier [1]; mouse, in vivo, iv): 0.059 ± 0.014 % Injected Dose

C=CCN1CC[C@]23c4c5ccc(O)c4O[C@H]2[C@@H](O)C=C[C@H]3[C@H]1C5 [nalorphine]
effect of pretreatment on the antinociceptive response to permeabilizer A-7 and loperamide (opiate receptor): completely antagonized

CNCC(=O)N[C@@H](CCCN=C(N)N)C(=O)N[C@H](C(=O)N[C@@H](Cc1ccc(O)cc1)C(=O)N[C@H](C(=O)N[C@@H](Cc1cnc[nH]1)C(=O)N1CCC[C@H]1C(=O)N[C@@H](C)C(=O)O)C(C)C)C(C)C [saralasin]
water consumption (angiotensin II receptors): remained within a normal range

Inulin [^3 H-Inulin]
% Injected Dose, +10 μg A-7 (blood-brain barrier [1]; mice, brain, labelled molecule i.v. with 10 μg permeabilizer A-7, 10 minutes, mean ± s.d.): 0.110 ± 0.016 % Injected Dose
% Injected Dose, Control (blood-brain barrier [1]; mice, brain, labelled molecule i.v. with saline, 10 minutes, mean ± s.d.): 0.075 ± 0.018 % Injected Dose

[D-Arg^0 ]-A-7 [A-14]
uptake of ^14 C-sucrose into the brain compared with A-7 (blood-brain barrier [2]): comparable to A-7

[dehydro Pro^2,7 ]-A-7 [A-9]
uptake of ^14 C-sucrose into the brain compared with A-7 (blood-brain barrier [2]): comparable to A-7

^3 H-Bovine Serum Albumin: radiolabelled bovine serum albumin, mol. weight 68,000
% Injected Dose, +10 μg A-7 (blood-brain barrier [1]; mouse, in vivo, iv): 0.209 ± 0.056 % Injected Dose
% Injected Dose, Control (blood-brain barrier [1]; mouse, in vivo, iv): 0.333 ± 0.098 % Injected Dose

arginine-proline-proline-glycine-phenylalanine-serine-proline-phenylalanine-arginine [[^3 H]-bradykinin]
Scatchard analysis of [^3 H]-bradykinin binding (bradykinin receptor): two affinity classes of [^3 H]-bradykinin binding site

B1: ^3 H-Ovalbumin: radiolabelled ovalbumin, mol. weight 46,000 (protein, UniProt P01012 2-386, looked up)
Ovalbumin: GSIGAASMEFCFDVFKELKVHHANENIFYCPIAIMSALAMVYLGAKDSTRTQINKVVRFDKLPGFGDSIEAQCGTSVNVHSSLRDILNQITKPNDVYSFSLASRLYAEERYPILPEYLQCVKELYRGGLEPINFQTAADQARELINSWVESQTNGIIRNVLQPSSVDSQTAMVLVNAIVFKGLWEKAFKDEDTQAMPFRVTEQESKPVQMMYQIGLFRVASMASEKMKILELPFASGTMSMLVLLPDEVSGLEQLESIINFEKLTEWTSSNVMEERKIKVYLPRMKMEEKYNLTSVLMAMGITDVFSSSANLSGISSAESLKISQAVHAAHAEINEAGREVVGSAEAGVDAASVSEEFRADHPFLFCIKHIATNAVLFFGRCVSP
modifications: tritium label
% Injected Dose, +10 μg A-7 (blood-brain barrier [1]; mouse, in vivo, iv): 0.093 ± 0.017 % Injected Dose
% Injected Dose, Control (blood-brain barrier [1]; mouse, in vivo, iv): 0.079 ± 0.016 % Injected Dose

B2: ^3 H-RNase: radiolabelled RNase, mol. weight 12,600 (protein, UniProt P61823 27-150, looked up)
Ribonuclease pancreatic: KETAAAKFERQHMDSSTSAASSSNYCNQMMKSRNLTKDRCKPVNTFVHESLADVQAVCSQKNVACKNGQTNCYQSYSTMSITDCRETGSSKYPNCAYKTTQANKHIIVACEGNPYVPVHFDASV
modifications: tritium label
% Injected Dose, +10 μg A-7 (blood-brain barrier [1]; mouse, in vivo, iv): 0.117 ± 0.030 % Injected Dose
% Injected Dose, Control (blood-brain barrier [1]; mouse, in vivo, iv): 0.123 ± 0.039 % Injected Dose
